The values below come from patent US8822449B2, “Substituted aminoindanes and analogs thereof, and the pharmaceutical use thereof” (Sanofi, priority 2008, dated 2014).

This experiment addresses T1, sodium-proton exchanger of subtype 3 (NHE3) (Homo sapiens, UniProt P48764).
T1 construct: expressed in transfected cells
T1 sequence (P48764 26-834): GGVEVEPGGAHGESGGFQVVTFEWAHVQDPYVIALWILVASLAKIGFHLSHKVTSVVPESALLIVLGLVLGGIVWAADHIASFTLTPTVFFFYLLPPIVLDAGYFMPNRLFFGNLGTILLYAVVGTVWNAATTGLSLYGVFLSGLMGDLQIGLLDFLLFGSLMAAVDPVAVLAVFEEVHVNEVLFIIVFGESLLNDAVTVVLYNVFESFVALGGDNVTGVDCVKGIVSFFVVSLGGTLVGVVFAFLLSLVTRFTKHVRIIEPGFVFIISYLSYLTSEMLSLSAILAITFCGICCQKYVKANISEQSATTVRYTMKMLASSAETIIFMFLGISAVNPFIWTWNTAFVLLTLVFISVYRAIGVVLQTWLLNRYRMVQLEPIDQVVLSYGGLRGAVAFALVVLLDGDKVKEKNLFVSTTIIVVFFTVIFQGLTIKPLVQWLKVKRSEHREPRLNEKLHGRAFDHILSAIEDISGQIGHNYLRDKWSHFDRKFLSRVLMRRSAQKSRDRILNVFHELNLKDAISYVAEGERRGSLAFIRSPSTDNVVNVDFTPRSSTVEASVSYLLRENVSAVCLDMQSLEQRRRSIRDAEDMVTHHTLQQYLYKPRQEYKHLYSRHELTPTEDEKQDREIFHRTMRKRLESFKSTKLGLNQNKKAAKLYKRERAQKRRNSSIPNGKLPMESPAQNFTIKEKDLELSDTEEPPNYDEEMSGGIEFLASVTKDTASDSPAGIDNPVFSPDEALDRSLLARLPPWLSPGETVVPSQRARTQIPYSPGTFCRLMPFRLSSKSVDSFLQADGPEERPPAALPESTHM
Description: Recovery of intracellular pH (pHi) after acidification in LAP1 cells stably expressing NHE3 (BCECF fluorescence, FLIPR). The note with it: LAP1 cells stably expressing NHE3; pH recovery after acidification; range 1 is % inhibition at 10 μM; read-out: Activity range (inhibitory effect on NHE3). Type of experiment: cell-based.
As for `CN1CCN(c2cccc(O[C@H]3c4cc(Cl)cc(F)c4C[C@@H]3N3CC[C@@H](O)C3)c2)C1=O` [Example 320, 1-{3-[trans-(1S,2S)-6-chloro-4-fluoro-2-((R)-3-hydroxypyrrolidin-1-yl)indan-1-yloxy]phenyl}-3-methylimidazolidin-2-one], the IC50 lay within 1 to 10 µM. For the compound `Brc1ccccc1O[C@@H]1c2ccccc2C[C@H]1N1C[C@H]2CNC[C@H]2C1` (racemic) [Example 11, 2-[rac-trans-(1,2)-1-(2-bromophenoxy)indan-2-yl]octahydropyrrolo[3,4-c]pyrrole], the IC50 was in the range of 1 to 10 µM.

`NCC1CCN([C@@H]2Cc3ccccc3[C@H]2Oc2ccc3[nH]cc(CC(N)=O)c3c2)CC1` (racemic) [Example 388, 2-{5-[rac-trans-(1,2)-2-(4-aminomethylpiperidin-1-yl)indan-1-yloxy]-1H-indol-3-yl}acetamide]: the IC50 fell in the range of 1 to 10 µM. The same measure, in the same setting: the figure for `CCCC1(N)CCCN([C@H]2Cc3c(Cl)cc(Cl)cc3[C@@H]2Oc2cccc(NC(C)=O)c2)C1` (mixture of isomers) [Example 693, N-{3-[trans-(1S,2S)-2-(3-amino-3-propylpiperidin-1-yl)-4,6-dichloroindan-1-yloxy]phenyl}acetamide] is less than 1 µM. For `N[C@@H]1CCCN([C@H]2CCc3ccccc3[C@@H]2Oc2ccc(F)c(C(F)(F)F)c2)C1` (racemic) [Example 69, (R)-1-[rac-trans-(1,2)-1-(4-fluoro-3-trifluoromethylphenoxy)-1,2,3,4-tetrahydronaphthalen-2-yl]piperidin-3-ylamine], the inhibition at 10 µM lay in the range of 20 to 50%. Turning to `Cn1ccn(-c2ccc(O[C@H]3c4cc(Cl)cc(Cl)c4C[C@@H]3N3CC[C@@H](O)C3)cc2)c1=O` [Example 331, 1-{4-[trans-(1S,2S)-4,6-dichloro-2-((R)-3-hydroxypyrrolidin-1-yl)indan-1-yloxy]phenyl}-3-methyl-1,3-dihydroimidazol-2-one], the IC50 was less than 1 µM. Consider `CC(=O)Nc1cccc(O[C@H]2c3ccccc3C[C@@H]2N2CCC[C@@H](NCCC(F)(F)F)C2)c1` [Example 632, N-(3-{trans-(1S,2S)-2-[(R)-3-(3,3,3-trifluoropropylamino)piperidin-1-yl]indan-1-yloxy}-phenyl)acetamide], for which the IC50 is less than 1 µM. Turning to `Nc1ccc2c(O[C@H]3c4ccccc4CC[C@@H]3N3CCC[C@@H](N)C3)cccc2c1` (racemic) [Example 80, (R)-1-[rac-trans-(1,2)-1-(6-aminonaphthalen-1-yloxy)-1,2,3,4-tetrahydronaphthalen-2-yl]piperidin-3-ylamine], the IC50 was 1 to 10 µM. Same read-out and setting: the figure for `Cn1ccn(-c2ccc(O[C@H]3c4cc(Cl)cc(F)c4C[C@@H]3NC3CCCC3)c(F)c2)c1=O` [Example 755, 1-[4-(trans-(1S,2S)-6-Chloro-2-cyclopentylamino-4-fluoro-indan-1-yloxy)-3-fluoro-phenyl]-3-methyl-1,3-dihydro-imidazol-2-one] is 1 to 10 µM. `CCC(=O)c1cc(F)c(O[C@H]2c3ccccc3CC[C@@H]2N2CCC[C@H](N)C2)c(F)c1` (racemic) [Example 327, 1-{4-[rac-trans-(1,2)-2-((S)-3-aminopiperidin-1-yl)-1,2,3,4-tetrahydronaphthalen-1-yloxy]-3,5-difluorophenyl}propan-1-one]: the inhibition at 10 µM was 20 to 50%. In the case of `N#Cc1ccc2cccc(O[C@H]3c4ccccc4CC[C@@H]3N3CCOCC3)c2n1` (racemic) [Example 594, 8-(rac-trans-(1,2)-2-morpholin-4-yl-1,2,3,4-tetrahydronaphthalen-1-yloxy)quinoline-2-carbonitrile], the inhibition at 10 µM was in the range of 20 to 50%.

As for `NS(=O)(=O)c1ccc(O[C@@H]2c3ccccc3C[C@H]2NC2CC2)c(F)c1` (racemic) [Example 703, 4-(rac-trans-(1,2)-2-Cyclopropylamino-indan-1-yloxy)-3-fluoro-benzenesulfonamide], the IC50 lay within 1 to 10 µM. Same read-out and setting: the figure for `CCOC(=O)c1ncoc1-c1ccc(O[C@H]2c3ccccc3CC[C@@H]2N2CCC[C@H](N)C2)cc1` (racemic) [Example 584, 5-{4-[rac-trans-(1,2)-2-((S)-3-aminopiperidin-1-yl)-1,2,3,4-tetrahydronaphthalen-1-yloxy]phenyl}oxazole-4-carboxylic acid ethyl ester] is 1 to 10 µM; for `CS(=O)(=O)c1ccc(O[C@H]2c3cc(Cl)cc(Cl)c3C[C@@H]2N2C[C@H]3CNC[C@H]3C2)cc1` [Example 3, 2-[trans-(1S,2S)-4,6-dichloro-1-(4-methanesulfonylphenoxy)indan-2-yl]octahydropyrrolo[3,4-c]pyrrole] it is less than 1 µM.

As for `COc1ccc(O[C@H]2c3ccccc3CC[C@@H]2N2CCC[C@@H](N)C2)c(F)c1` (racemic) [Example 42, (R)-1-[rac-trans-(1,2)-1-(2-fluoro-4-methoxyphenoxy)-1,2,3,4-tetrahydronaphthalen-2-yl]piperidin-3-ylamine], the inhibition at 10 µM was in the range of 20 to 50%. Regarding `NS(=O)(=O)c1ccc(OC2c3ccccc3CC2N2CCCC2)cc1` (racemic) [Example 466, 4-(rac-trans-(1,2)-2-pyrrolidin-1-ylindan-1-yloxy)benzenesulfonamide], the IC50 is less than 1 µM. With `N[C@@H]1CCCN([C@H]2Cc3c(Cl)cc(Cl)cc3[C@@H]2Oc2ccc(S(N)(=O)=O)c(Cl)c2Cl)C1` [Example 550, 4-[trans-(1S,2S)-2-((R)-3-aminopiperidin-1-yl)-4,6-dichloroindan-1-yloxy]-2,3-dichlorobenzenesulfonamide], the IC50 was less than 1 µM. The same measure, in the same setting: the figure for `Cc1cc(O[C@@H]2c3ccccc3C[C@H]2N2CCC(CN)C2)cc(C)c1C#N` (mixture of isomers) [Example 539, 4-[rac-trans-(1,2)-2-(3-aminomethylpyrrolidin-1-yl)indan-1-yloxy]-2,6-dimethylbenzonitrile] is 1 to 10 µM. The same measure, in the same setting: the figure for `Nc1ccc2c(O[C@H]3c4ccccc4CC[C@@H]3N3CCC[C@H](N)C3)cccc2c1` (racemic) [Example 189, (S)-1-[rac-trans-(1,2)-1-(6-aminonaphthalen-1-yloxy)-1,2,3,4-tetrahydronaphthalen-2-yl]piperidin-3-ylamine] is 1 to 10 µM; for `Clc1cnccc1O[C@H]1c2ccccc2C[C@@H]1N1CCCC1` (racemic) [Example 441, 3-chloro-4-(2-pyrrolidin-1-ylindan-1-yloxy)pyridine] it is 1 to 10 µM. Turning to `N[C@H]1CCCN([C@H]2CCc3ccccc3[C@@H]2Oc2ccccc2OC(F)(F)F)C1` (racemic) [Example 159, (S)-1-[rac-trans-(1,2)-1-(2-trifluoromethoxyphenoxy)-1,2,3,4-tetrahydronaphthalen-2-yl]piperidin-3-ylamine], the inhibition at 10 µM was 20 to 50%. With `NS(=O)(=O)c1ccc(O[C@H]2c3ccccc3C[C@@H]2N2CCCCCC2)cc1` (racemic) [Example 464, 4-(rac-trans-(1,2)-2-azepan-1-ylindan-1-yloxy)benzenesulfonamide], the IC50 is less than 1 µM. Consider `COc1cccc(F)c1O[C@H]1c2ccccc2CC[C@@H]1N1CCC[C@@H](N)C1` (racemic) [Example 44, (R)-1-[rac-trans-(1,2)-1-(2-fluoro-6-methoxyphenoxy)-1,2,3,4-tetrahydronaphthalen-2-yl]piperidin-3-ylamine], for which the inhibition at 10 µM was in the range of 20 to 50%. With `N[C@H]1CCCN([C@@H]2Cc3ccccc3[C@H]2Oc2ccc(-n3cncn3)cc2)C1` (racemic) [Example 172, (S)-1-[rac-trans-(1,2)-1-(4-[1,2,4]triazol-1-ylphenoxy)indan-2-yl]piperidin-3-ylamine], the IC50 fell in the range of 1 to 10 µM. On the same count and under the same terms, the figure for `NCC1CCN([C@@H]2Cc3ccccc3[C@H]2Oc2cccc(NC(N)=O)c2)C1` (mixture of isomers) [Example 233, {3-[rac-trans-(1,2)-2-(3-aminomethylpyrrolidin-1-yl)indan-1-yloxy]phenyl}urea] is 1 to 10 µM; for `CC(=O)Nc1cccc(O[C@@H]2c3ccccc3C[C@H]2N2CCC(CN)CC2)c1` (racemic) [Example 688, N-{3-[rac-trans-(1,2)-2-(4-aminomethylpiperidin-1-yl)indan-1-yloxy]phenyl}acetamide] it is 1 to 10 µM; for `CC(=O)Nc1cccc(O[C@H]2c3cc(Cl)cc(Cl)c3C[C@@H]2N2CC[C@@H](O)C2)c1` [Example 696, N-{3-[trans-(1S,2S)-4,6-dichloro-2-((R)-3-hydroxypyrrolidin-1-yl)indan-1-yloxy]phenyl}acetamide] it is less than 1 µM.

In the case of `N#Cc1cc(Cl)ccc1O[C@H]1c2ccccc2CC[C@@H]1N1CCC[C@@H](N)C1` (racemic) [Example 366, 2-[rac-trans-(1,2)-2-((R)-3-aminopiperidin-1-yl)-1,2,3,4-tetrahydronaphthalen-1-yloxy]-5-chlorobenzonitrile], the inhibition at 10 µM was in the range of 20 to 50%.

For the compound `NS(=O)(=O)c1ccc(O[C@H]2c3ccccc3C[C@@H]2N2CCCC2)c(F)c1` (racemic) [Example 451, 3-fluoro-4-(2-pyrrolidin-1-ylindan-1-yloxy)benzenesulfonamide], the IC50 was less than 1 µM.
